From article PMC5853558, “De novo identification of lipid II binding lipopeptides with antibacterial activity against vancomycin-resistant bacteria” (Chemical Science, 2017)
*1 amine or outer side, *2 acyl side, *3 side chain or, on linkers, in order; H or OH if unused. Where a SMILES comes first, the peptide text is derived from it. Bridges are numbered along the chain shown (N, C = ends). [ ]: non-standard residue; d: D form. TBMB = c1c(C[*:1])cc(C[*:3])cc1C[*:2]

Test system: M. luteus (NCTC2665)
Assay: microbe, parasite or virus in culture
Format: cell-based, Micrococcus luteus
Conditions: for MIC of Ala scan of P8-D against M. luteus: Supplemental table S8, non-lipidated P8 variants, broth microdilution, highest tested 512 µg/ml
Method: Section 4 Biological and biochemical experiments
4.1 Minimum inhibitory concentration assay
MIC values were determined by using the broth microdilution method. Peptides were dissolved first in DMSO and diluted with broth so that the final peptide concentration was 1024 µg/ml and the DMSO concentration was 4%. Peptide serial dilutions were made in TSB in a polypropylene 96-wells plate using 50 µl volumes. An overnight culture of the organism of interest was diluted to and OD600 of 0.01 and grown until they reach 0.5. The culture was then diluted to 1 x 10^6 CFU/ml and 50 µl of this suspension was added to each well. The highest concentrations were then 512 µg/ml peptide and 2% DMSO. The plates were incubated at the preferred growth temperature of the organism that was used and 250 rpm. […] When […]
determining the MICs of the lipidated peptides, the lipopeptides were first dissolved in DMSO and diluted with TSB so that the peptide concentration was 128 µg/ml and the DMSO concentration was 4%. After inoculation the highest peptide concentration evaluated was 64 µg/ml and the DMSO concentration was 2%. A DMSO control was tested for each strain to ensure the DMSO did not affect the growth of the particular strain. […]

CC(C)C[C@H]1NC(=O)[C@@H](C)NC(=O)[C@H](NC(=O)[C@@H](C)N)CSCc2cc3cc(c2)CSC[C@@H](NC(=O)[C@@H](CC(C)C)NC(=O)[C@@H](CC(C)C)NC(=O)[C@@H](CO)NC(=O)[C@@H](CCC(N)=O)NC1=O)C(=O)N1CCC[C@@H]1C(=O)N[C@H](Cc1ccc(O)cc1)C(=O)N[C@H](CO)C(=O)N[C@H]([C@H](C)O)C(=O)N[C@H](Cc1c[nH]cn1)C(=O)N[C@H](CCCNC(=N)N)C(=O)N[C@@H](C(=O)NCC(N)=O)CSC3 [Peptide P8-D-L3A] (H-[dA][dC][dA][dL][dQ][dS][dL][dL][dC][dP][dY][dS][dT][dH][dR][dC]G-NH2; linker 2-9-16 via TBMB; N-terminus assumed)
MIC of Ala scan of P8-D against M. luteus: > 512 µg/mL

CC(C)C[C@@H]1NC(=O)[C@@H]2CSCc3cc(cc(c3)CSC[C@@H](C(=O)NCC(N)=O)NC(=O)[C@H](CC(=O)O)NC(=O)[C@H](C(C)C)NC(=O)[C@H]([C@@H](C)O)NC(=O)[C@H](CCC(N)=O)NC(=O)[C@H](Cc3ccccc3)NC1=O)CSC[C@H](NC(=O)[C@H](C)N)C(=O)N[C@@H](Cc1ccc(O)cc1)C(=O)N1CCC[C@H]1C(=O)N[C@@H](C(C)C)C(=O)N[C@@H](CC(=O)O)C(=O)N[C@@H](Cc1c[nH]c3ccccc13)C(=O)N[C@@H](Cc1ccc(O)cc1)C(=O)N2 [Peptide P6] (H-ACYPVDWYCLFQTVDCG-NH2; linker 2-9-16 via TBMB; N-terminus assumed)
MIC against M. luteus (Table 1, non-lipidated bicyclic peptides, broth microdilution in TSB, 16 h, read visually, n.a. = no activity, highest tested concentration 512 μg mL^–1): 128 μg mL^–1

CC(C)C[C@H]1NC(=O)[C@H](NC(=O)[C@@H](C)N)CSCc2cc3cc(c2)CSC[C@@H](NC(=O)[C@@H](CC(C)C)NC(=O)[C@@H](CC(C)C)NC(=O)[C@@H](CO)NC(=O)[C@@H](CCC(N)=O)NC(=O)[C@@H](CC(C)C)NC1=O)C(=O)N1CCC[C@@H]1C(=O)N[C@H](C)C(=O)N[C@H](CO)C(=O)N[C@H]([C@H](C)O)C(=O)N[C@H](Cc1c[nH]cn1)C(=O)N[C@H](CCCNC(=N)N)C(=O)N[C@@H](C(=O)NCC(N)=O)CSC3 [Peptide P8-D-Y11A] (H-[dA][dC][dL][dL][dQ][dS][dL][dL][dC][dP][dA][dS][dT][dH][dR][dC]G-NH2; linker 2-9-16 via TBMB; N-terminus assumed)
MIC of Ala scan of P8-D against M. luteus: 512 µg/mL

CC(C)C[C@H]1NC(=O)[C@H](NC(=O)[C@@H](C)N)CSCc2cc3cc(c2)CSC[C@@H](NC(=O)[C@@H](CC(C)C)NC(=O)[C@@H](CC(C)C)NC(=O)[C@@H](CO)NC(=O)[C@@H](CCC(N)=O)NC(=O)[C@@H](CC(C)C)NC1=O)C(=O)N1CCC[C@@H]1C(=O)N[C@H](Cc1ccc(O)cc1)C(=O)N[C@H](C)C(=O)N[C@H]([C@H](C)O)C(=O)N[C@H](Cc1c[nH]cn1)C(=O)N[C@H](CCCNC(=N)N)C(=O)N[C@@H](C(=O)NCC(N)=O)CSC3 [Peptide P8-D-S12A] (H-[dA][dC][dL][dL][dQ][dS][dL][dL][dC][dP][dY][dA][dT][dH][dR][dC]G-NH2; linker 2-9-16 via TBMB; N-terminus assumed)
MIC of Ala scan of P8-D against M. luteus: 512 µg/mL

CC(C)C[C@H]1NC(=O)[C@@H](CO)NC(=O)[C@@H](CCC(N)=O)NC(=O)[C@@H](CC(C)C)NC(=O)[C@@H](CC(C)C)NC(=O)[C@H](NC(=O)[C@@H](C)N)CSCc2cc3cc(c2)CSC[C@@H](NC(=O)[C@@H](C)NC1=O)C(=O)N1CCC[C@@H]1C(=O)N[C@H](Cc1ccc(O)cc1)C(=O)N[C@H](CO)C(=O)N[C@H]([C@H](C)O)C(=O)N[C@H](Cc1c[nH]cn1)C(=O)N[C@H](CCCNC(=N)N)C(=O)N[C@@H](C(=O)NCC(N)=O)CSC3 [Peptide P8-D-L8A] (H-[dA][dC][dL][dL][dQ][dS][dL][dA][dC][dP][dY][dS][dT][dH][dR][dC]G-NH2; linker 2-9-16 via TBMB; N-terminus assumed)
MIC of Ala scan of P8-D against M. luteus: 128 to 256 µg/mL
